The source of these data is a melting point compilation (Tetko et al.; mined from patent text by program, amines drawn as free bases though some values may be those of a salt).

Where only a bound is given, the exact number is not on record here.

The term melting point denotes the temperature of the solid-liquid transition. Molecule `Nc1nc(-c2ccc(C(=O)N3CCN(S(=O)(=O)c4ccc5cc(Br)ccc5c4)CC3)cc2)c[nH]1` yielded a melting point of 274 to 275 °C. `CCCn1cc(Cc2ccc(C(=O)OC)cc2OC)c2cc(C=O)ccc21` had a melting point of 99 to 100 °C.

`CCON=C(C)C1CCC(=O)CC1=O` (centres undefined) gave a melting point of 105 to 112 °C. Consider `Cc1ncccc1C(C#N)N1CCN(C(=O)CC(NC(=O)Cc2cccc(OCc3ccc4ccccc4n3)c2)c2ccccc2)CC1` (centres undefined), for which the melting point lay in the range of 83 to 86 °C. On to `COC(=O)c1ccc(NC(=O)c2cc(C(C)C)c(C(C)C)s2)cc1Cl`, for which the melting point fell in the range of 153 to 154 °C.

The molecule `C=C(C)c1ccc(C2=NC(=O)C(C)(C(=C)C)N2)nc1` (centres undefined) returned a melting point of 123 to 125 °C. Molecule `O=c1[nH]c(NCCCN(Cc2ccccc2)c2ccccn2)ncc1Cc1ccc(Cl)cc1` returned a melting point of 80 to 86 °C. Next, `O=c1oc(-c2ccccc2)cc(O)c1C(CC1CC1)SCc1ccccc1` (centres undefined): 59 to 61 °C; `OC(CNCCCc1ccc(OCCOCCc2ccccc2)cc1)COc1ccccc1` (racemic): 76 to 78 °C; `COc1cc2ccc(CC(=O)Cl)cc2cc1OC`: 51 to 62 °C. Then `Oc1ccc(CCNCC(O)c2ccccn2)cc1` (racemic), with 112 to 114 °C; and `CCCc1cc(Cl)c(OC(=S)N(C)C)c(C(C)=O)c1O`, with 114 to 116 °C; and `CC1CCCC(C)(C)C1CS(=O)(=O)c1ccccc1` (centres undefined), with 73 °C. Next, `O=C(NCC1(c2ccccc2)CCCCC1)Nc1ccc(Cl)cc1`: 164 to 166 °C; `CCc1c(C)nc(-c2ccccc2)nc1NCC(=O)N(C)c1ccc(Cl)cc1`: 142 to 143 °C. In the case of `CC(NC(=O)C=Cc1ccccc1F)c1ccc2c(c1)N(C)CCC2` (centres undefined), the melting point lay in the range of 60 to 63 °C.

Consider `CCOC(=O)Nc1nc(C)co1`, for which the melting point amounted to 126 °C.

As to `COC(=O)c1ccc2c(c1)C1(O)C(=O)c3ccccc3C1(O)O2` (centres undefined), the melting point lay in the range of 220 to 223 °C. In turn, `CCCCCCCCCCOc1ccc(-c2nc3ccc(C(=O)O)cc3o2)cc1C12CC3CC(CC(C3)C1)C2` came in with a melting point of 200 to 201 °C.

In the case of `FC(F)(F)/C(=C(\c1ccccc1)c1ccc(OCCN2CCCC2)cc1)c1ccccc1`, the melting point was in the range of 84.5 to 86 °C.

Molecule `Cc1c(Cc2ccc(C(C)C)cc2)c2c(c(C)c1NC(=O)CC(C)(C)C)CC(C)(CO)O2` (centres undefined) showed a melting point of 186 to 187 °C.

As for `O=c1[nH]c2c(n(O)c1=O)C1=C(CCC(n3ccc(CN4CCN(C(c5ccccc5)c5ccccc5)CC4)c3)=C1)CC2`, the melting point is > 200 °C. Turning to `Cc1nn(C)c(C)c1N=C=S`, the melting point was 51 °C. Next, `COc1cc(C(=O)c2c(C)nn(C)c2O)cc(OC)c1OC`: 189 to 191 °C; `O=C(c1ccccc1)N1CCn2c(CN3CCCCC3)ccc2C1`: 95 to 96 °C; `O=C(O)CN(C(=O)c1cccc(C(F)(F)F)c1S)C1CCCC1`: 144 to 146 °C. `COc1c(Nc2ncc3ccc(-c4ccccc4N(C)S(C)(=O)=O)n3n2)cccc1C1CCN(C)CC1` gave a melting point of 92 to 101 °C. Then `O=C(Nc1ccc(F)cc1F)c1nccnc1Oc1cccc(C(F)(F)F)c1`, with 107 to 109 °C; and `COc1ccc(-n2c(=O)oc3ccc(-c4ccc(F)cc4F)cc3c2=O)cc1OC`, with 198 to 199 °C. Next, `COC(=O)[C@@H](CCN1C(=O)c2ccccc2C1=O)Oc1c(Br)cc(-c2c(Br)ccc3sc4ccccc4c23)cc1Br`: 99 to 101 °C. Then `S=C(Nc1ccccc1)N(Cc1ccc(Br)cc1)C1CCCC1`, with 129 to 131 °C; and `COc1cc(C(C)C)c2c(c1)S(=O)(=O)N(COC(=O)c1c(C)nn(-c3ccccc3)c1C)C2=O`, with 167 to 169 °C. Regarding `O=C1NC(=O)C(c2ccc3c(c2)CCC3)S1` (centres undefined), the melting point was in the range of 124 to 125 °C.

The molecule `COC(=O)C(C)Oc1ccc(C(C)=O)cc1` (centres undefined) came in with a melting point of 54.8 °C.

As for `CN1CCC23c4c5ccc(O[Si](C)(C)C(C)(C)C)c4OC2C(O[Si](C)(C)C(C)(C)C)C=CC3C1C5` (centres undefined), the melting point lay within 118 to 119 °C. As for `Cc1cc(C2=CCN(CCCC(=O)c3ccc(F)cc3)CC2)on1`, the melting point is 96 to 98 °C.

As to `O=C(O)/C=C/C=C(c1cccc([N+](=O)[O-])c1)c1cccc([N+](=O)[O-])c1`, the melting point lay in the range of 234 to 237 °C. Next, `O=C(CCc1cccc([N+](=O)[O-])c1)c1c(O)c2cccnc2n(-c2ccccc2)c1=O`: 164 to 166 °C; `Fc1ccc(-c2csc(NN=Cc3cn(Cc4ccc(Cl)cc4Cl)c4ccccc34)n2)cc1`: 198 °C; `C=CCOc1ccc2c(C)cc(=O)oc2c1C(=O)C=Cc1ccccc1`: 136 to 139 °C. As to `CCOCc1nc2c(N)nc3ccccc3c2n1CC1(OCCS(C)(=O)=O)CCCCC1`, the melting point was 159 to 161 °C. With `CC(C)CCNc1nc(-c2ccccc2)c(-c2ccnc(Nc3ccccc3)n2)s1`, the melting point is 170 to 172 °C.

In turn, `COc1ccc(-c2[nH]nc3c2C(=O)c2c(NC(=O)Cc4ccccc4)cccc2-3)cc1` returned a melting point of 280 °C. Then `CCOC(=O)c1ccc(NC(=O)CC2c3ccccc3Sc3ccccc32)cc1`, with 184 to 186 °C. Then `CCOC(=O)c1c(=O)c2cc(F)c(N3CCN(C)CC3)cc2n2ccccc12`, with 167 to 170 °C. As to `Cc1cc(Nc2ccn(-c3ccccc3)n2)cc(C)c1OC(=O)CC#N`, the melting point fell in the range of 116 to 117 °C. Then `NC(C=CP(=O)(O)O)(CO)CCc1ccc(Sc2cccc(OCc3ccccc3)c2)cc1Cl` (centres undefined), with 245 to 248 °C; and `COc1ncccc1-c1cccn2nc(Nc3ccc(C4CCN(CC(=O)N(C)C)CC4)cc3)nc12`, with 173 to 175 °C.

The molecule `O=C(CBr)c1cc(O)c(O)c([N+](=O)[O-])c1` came in with a melting point of 138 to 140 °C. In the case of `CCOC(=O)c1c(-c2cc(C(C)(C)C)c(O)c(C(C)(C)C)c2)c2cc3c(cc2oc1=O)CCC3`, the melting point is 208 to 209 °C.

As for `CCN(Cc1cccs1)C(=O)C12CC3CC(CC(C3)C1)C2`, the melting point was in the range of 103 to 105 °C. Then `CC1(C)CC(=O)C2=C(C1)NC1=C(C(=O)CC(C)(C)C1)C2c1ccc(Cl)c(Oc2ccncc2)c1`, with 242 to 244 °C. `CNCCN(C)C(=O)OC(Cc1ccccc1)C(=O)N(C)C(Cc1c[nH]cn1)C(=O)NC(CC1CCCCC1)C(O)CCC(C)C` (centres undefined): the melting point was in the range of 65 to 68 °C. For the molecule `O=c1[nH]c2ccc(Br)cc2c(-c2ccccc2)[n+]1[O-]`, the melting point lay within 275 to 276 °C. Consider `COc1cc(CBr)c(Br)cc1OCc1ccccc1`, for which the melting point was 103 to 105 °C. Next, `CCN(CC)C(=O)n1cc(C(=O)C2CSC(c3cccnc3)N2)c2ccccc21` (centres undefined): 84 °C; `Cc1cc2c(cc1Cl)N(C(=O)CN1CCN(c3ccccc3)CC1)c1ccccc1N(C)S2(=O)=O`: 194 to 196 °C; `CC(=NO)c1ccnc(C)c1`: 151 to 152 °C.

Consider `O=c1c2cc(F)c(F)cc2n(-c2ccc(F)c(Cl)c2)c(=O)n1OCc1ccccc1`, for which the melting point was 184 to 186 °C.
